Measured values from article PMC2562352 (Journal of medicinal chemistry, 2008).

Tests used:
yellow fever virus = format: cell-based, yellow fever virus (YFV 17D)
BHK cells = test: Cell viability assay; details: CC50 compared with M02

Row | SMILES | antiviral activity vs. yellow fever virus (in words) (yellow fever virus) | cytotoxicity relative to parent compound M02 (times less) (BHK cells) | antiviral activity relative to parent compound M02 (yellow fever virus)
1 | Nc1ccc(SCc2csc(-c3cccnc3)n2)cc1 [Compound 28] | lose antiviral activity | – | –
2 | C/C(=N\NC(N)=O)c1ccc(NC(=O)Nc2nc(C)c(C(=O)NCc3ccc(Cl)cc3Cl)s2)cc1 [Compound 1, (E)-2-(3-(4-(1-(2-Carbamoylhydrazono)-ethyl)-phenyl)-ureido)-N-(2,4-dichlorobenzyl)-4-methylthiazole-5-carboxamide] | inactive | – | –
3 | C/C(=N\NC(=N)N)c1ccc(NC(=O)Nc2nc(C)c(C(=O)NCc3ccc(Cl)cc3Cl)s2)cc1 [Compound 2, (E)-2-(3-(4-(1-(2-Carbamimidoylhydrazono)-ethyl)-phenyl)-ureido)-N-(2,4-dichlorobenzyl)-4-methylthiazole-5-carboxamide] | active | – | –
4 | CC(=O)c1ccc(NC(=O)Nc2nc(C)c(C(=O)NCc3ccc(Cl)c(Cl)c3)s2)cc1 [Compound 8, 2-(3-(4-Acetylphenyl)-ureido)-N-(3,4-dichlorobenzyl)-4-methylthiazole-5-carboxamide] | active | – | –
5 | CC(=O)c1ccc(NC(=O)Nc2nc(C)c(C(=O)O)s2)cc1 [Compound 4, 2-[3-(4-Acetylphenyl)-ureido]-4-methylthiazole-5-carboxylic Acid] | lost its activity | – | –
6 | Clc1ccc(-c2nc(CSc3cccc(Cl)c3)cs2)cc1 [Compound 30] | lose antiviral activity | – | –
7 | COC(=O)c1sc(N(Cc2ccc(C(C)=O)cc2)Cc2ccc(C(C)=O)cc2)nc1C [Compound 18, Methyl 2-(Bis(4-acetylbenzyl)amino)-4-methylthiazole-5-carboxylate] | active | – | –
8 | CC(=O)c1ccc(NC(=O)Nc2nc(C)c(C(=O)NCc3ccc(Cl)cc3Cl)s2)cc1 [Compound 7, 2-(3-(4-Acetylphenyl)-ureido)-N-(2,4-dichlorobenzyl)-4-methylthiazole-5-carboxamide] | inactive | – | –
9 | COC(=O)c1sc(-c2ccc(Cl)cc2)nc1C [Compound 32, 2-(4-Chlorophenyl)-4-methyl-thiazole-5-carboxylic Acid Methyl Ester] | inactive | – | –
10 | Cc1nc(-n2nc(-c3ccccc3)cc2-c2ccccc2)sc1C(=O)NCc1ccc(Cl)c(Cl)c1 [Compound 11, N-(3,4-Dichlorobenzyl)-2-(3,5-diphenyl-1H-pyrazol-1-yl)-4-methylthiazole-5-carboxamide] | – | 2.7 times | 10 times
11 | Nc1ccccc1SCc1csc(-c2cccnc2)n1 [Compound 29] | lose antiviral activity | – | –
